From PubChem BioAssay (NCI)
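These data come from cells grown in 96-well plates and exposed to compound for 48 hours at five concentrations. GI50 = concentration required for 50% inhibition of growth. TGI denotes the concentration required for complete inhibition of growth.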

Columns and labels:
Assay in all cases: NCI-60 cell line screen, 48 h
BT-549 breast = tested on: BT-549 breast
HOP-92 NSCLC = tested on: HOP-92 NSCLC
MALME-3M melanoma = tested on: MALME-3M melanoma
NCI-H23 lung = tested on: NCI-H23 lung
NCI/ADR-RES ovarian = tested on: NCI/ADR-RES ovarian
OVCAR-5 ovarian = tested on: OVCAR-5 ovarian
RXF 393 renal = tested on: RXF 393 renal
SF-295 CNS = tested on: SF-295 CNS
SK-OV-3 ovarian = tested on: SK-OV-3 ovarian
SW-620 colon = tested on: SW-620 colon

SMILES	GI50 (BT-549 breast)	TGI (BT-549 breast)	GI50 (HOP-92 NSCLC)	TGI (HOP-92 NSCLC)	GI50 (MALME-3M melanoma)	TGI (MALME-3M melanoma)	GI50 (NCI-H23 lung)	TGI (NCI-H23 lung)	GI50 (NCI/ADR-RES ovarian)	TGI (NCI/ADR-RES ovarian)	GI50 (OVCAR-5 ovarian)	TGI (OVCAR-5 ovarian)	GI50 (RXF 393 renal)	TGI (RXF 393 renal)	GI50 (SF-295 CNS)	TGI (SF-295 CNS)	GI50 (SK-OV-3 ovarian)	TGI (SK-OV-3 ovarian)	GI50 (SW-620 colon)	TGI (SW-620 colon)
CC(C)=CC(=O)N[C@@H]1CC2CCC3C(CC[C@@]4(C)C3CC[C@@H]4C(C)N(C)C)[C@@]2(C)C[C@@H]1O (stereo not given in full)	7.57 µM	29.3 µM	2.37 µM	24.2 µM	2.91 µM	9.41 µM	5.06 µM	39.1 µM	7.05 µM	> 72.6 µM	10.6 µM	38.2 µM	3.12 µM	12.2 µM	3.45 µM	16.6 µM	10.4 µM	24.6 µM	2.86 µM	10.5 µM
CCCCCCCCCCCC1=NC(C)(C)CN1CC(C)O (stereo not given)	5.93 µM	22.2 µM	2.06 µM	13.6 µM	5.64 µM	20.4 µM	4.36 µM	16 µM	11.8 µM	24.1 µM	12.3 µM	24.8 µM	2.55 µM	6.96 µM	4.36 µM	17.8 µM	12.4 µM	24.8 µM	1.85 µM	3.91 µM
COc1cc(C(=O)O/N=C(\N)Cc2cccc3ccccc23)cc(OC)c1OC	14.6 µM	29.7 µM	4.59 µM	17 µM	8.4 µM	21.9 µM	11.4 µM	29.8 µM	7.02 µM	59.2 µM	13 µM	26.5 µM	10.7 µM	23.9 µM	3.49 µM	13.7 µM	16.5 µM	30.6 µM	11.7 µM	27.8 µM
Oc1ccc(Oc2cnc3cc(Cl)ccc3n2)cc1	20.9 µM	> 100 µM	37.3 µM	> 100 µM	34.7 µM	> 100 µM	52.8 µM	> 100 µM	35.7 µM	> 100 µM	> 100 µM	> 100 µM	46.6 µM	> 100 µM	22.6 µM	74.5 µM	> 100 µM	> 100 µM	38.2 µM	> 100 µM
Fc1ccc([C@@H]2CCNC[C@H]2COc2ccc3c(c2)OCO3)cc1	12.2 µM	26.1 µM	1.62 µM	12.8 µM	2.68 µM	6.12 µM	15.4 µM	32.5 µM	14 µM	30 µM	14.3 µM	28.4 µM	5.28 µM	20.1 µM	4.07 µM	17.1 µM	12.7 µM	25.7 µM	10.6 µM	24.2 µM
Cc1ccc(-c2cc(-c3ccc(C)cc3)nc(N3CCN(CCNc4ccnc5cc(Cl)ccc45)CC3)n2)cc1	6.06 µM	17 µM	0.963 µM	4.25 µM	1.07 µM	2.28 µM	3.63 µM	17.5 µM	2.53 µM	11.1 µM	3.84 µM	17.6 µM	1.45 µM	7.36 µM	5.27 µM	15.4 µM	5.49 µM	14.2 µM	1.82 µM	6.32 µM
O=C1CC(c2ccsc2)c2snc(-c3ccc(Cl)cc3)c2N1 (stereo not given)	2.26 µM	> 100 µM	3.87 µM	81.8 µM	2.72 µM	> 100 µM	1.76 µM	> 100 µM	0.364 µM	2.37 µM	5.92 µM	> 100 µM	3.49 µM	50.8 µM	1.87 µM	19.7 µM	2.17 µM	12 µM	0.429 µM	> 100 µM
